# Assay results published in patent publication US20190169140A1, “IDO1 INHIBITOR AND PREPARATION METHOD AND APPLICATION THEREOF” (SHANDONG LUYE PHARMACEUTICAL CO., LTD., priority 2016, published 2019).
# Marks after values point to notes of the source that are not given here.
# Assays:
# [1] = target: T1, IDO1 enzyme in Hela cells (Homo sapiens, UniProt P14902); experiment: Test of hIDO1 for cytological activity (Hela cell kynurenine by LCMS, interferon-γ induced); type: cell-based; conditions: interferon-γ 100 ng/ml, 20 hours
# T1 construct: endogenous in cells; host or cells: Hela cells, induced with recombinant human interferon-γ
# T1 sequence (P14902 whole entry): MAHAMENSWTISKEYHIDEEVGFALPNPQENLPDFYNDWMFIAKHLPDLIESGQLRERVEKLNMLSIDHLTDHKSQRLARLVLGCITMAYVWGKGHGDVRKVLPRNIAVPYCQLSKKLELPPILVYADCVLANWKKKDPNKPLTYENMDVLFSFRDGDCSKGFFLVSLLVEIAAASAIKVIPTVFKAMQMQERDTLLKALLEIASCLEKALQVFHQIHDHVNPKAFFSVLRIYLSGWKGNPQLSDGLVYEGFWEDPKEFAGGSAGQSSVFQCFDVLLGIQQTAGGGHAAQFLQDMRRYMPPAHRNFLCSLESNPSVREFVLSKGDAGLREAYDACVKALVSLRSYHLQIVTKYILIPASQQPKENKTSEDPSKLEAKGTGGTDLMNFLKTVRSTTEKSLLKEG
# Description: 2. Test of hIDO1 for Cytological Activity
# Changes in Hela cell kynurenine were detected by an LCMS method. With an IC50 value of a compound as an index, an inhibitory effect of the compound on IDO1 enzyme was evaluated.
# The culture medium, trypsin, and DPBS were preheated in water bath at 37° C. The culture medium was removed by sucking from cell culture, followed by cleaning the cell culture with 10 mL of DPBS; the preheated trypsin was added to the culture flask, which was revolved to make the culture flask covered by trypsin uniformly, and placed into an incubator at 37° C. with 5% CO2 for digestion for 1-2 minutes; 10-15 mL of the culture medium was used to suspend cells each T150, followed by centrifugation at 800 rpm for 5 minutes. 10 mL of the culture medium was used to resuspend the cells. 1 mL of the cell resuspension was pipetted, and counted with Vi-cell; the Hela cells were diluted to 5×10^5/mL with the culture medium, 80 μL of the diluted Hela cells were added to the 96-well cell plate, and incubated in the an incubator at 37° C. with 5% CO2 for 5-6 hours.
# The compound was diluted with DMSO to 1 mM, with 9 gradients, each 3-fold dilution, in duplicate. 5 μL of the already diluted compound DMSO solution was added to the compound plate containing 95 μL of the culture medium. After even mixing, 10 μL of the mixture was transferred to the cell plate.
# 10 μL of recombinant human interferon-γ was added to result in a final concentration of 100 ng/ml, to induce expression of IDO1. Incubation was carried out in the 5% CO2 incubator at 37° C. for 20 hours. 4 μL of 5% (w/v) trichloroacetic acid was added, followed by even mixing and incubation at 50° C. for 30 minutes. After centrifugation at 2400 rpm for 10 minutes, 40 μL of a supernatant was added to a 96-well V-bottom plate, followed by addition of a precipitant. Centrifugation was carried out at 4000 rpm for 10 minutes after even mixing. 100 μL of the supernatant was transferred to a new 96-well V-bottom plate. A content of kynurenine was detected through LCMS.
# A reference well to which the interferon-γ was added but no compound was added was set to have an inhibition rate of 0%, and a reference well to which no Hela cell was added was set to have an inhibition rate of 100%. Data was analyzed with XLFit 5 to calculate an IC50 value of the compound.
# CYP2C9 = target: T2, CYP2C9 (Homo sapiens, UniProt P11712); experiment: Inhibition on human liver microsome CYP2C9; type: in vitro ADME; conditions: human liver microsomes; for IC50: 5-in-1 probe substrate
# T2 construct: tissue Corning Inc. or XenoTech, LLC. or other suppliers; host or cells: mixed human liver microsomes
# T2 sequence (P11712 whole entry): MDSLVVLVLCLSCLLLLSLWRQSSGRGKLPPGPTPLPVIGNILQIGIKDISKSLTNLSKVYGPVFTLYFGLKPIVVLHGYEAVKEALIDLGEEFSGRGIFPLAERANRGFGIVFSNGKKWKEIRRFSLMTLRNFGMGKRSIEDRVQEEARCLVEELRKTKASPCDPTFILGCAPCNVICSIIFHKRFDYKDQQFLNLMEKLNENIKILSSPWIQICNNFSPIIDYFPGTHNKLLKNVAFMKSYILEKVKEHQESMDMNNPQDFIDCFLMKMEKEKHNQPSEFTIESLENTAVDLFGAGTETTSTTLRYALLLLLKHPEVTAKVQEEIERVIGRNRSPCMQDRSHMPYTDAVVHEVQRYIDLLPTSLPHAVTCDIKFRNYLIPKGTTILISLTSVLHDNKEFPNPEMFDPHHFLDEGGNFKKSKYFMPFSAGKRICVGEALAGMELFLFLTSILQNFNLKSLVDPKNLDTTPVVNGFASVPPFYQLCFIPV
# Description: (§1) The research project aimed at evaluating inhibitory ability of a sample for test on human liver microsome cytochrome P450 isozymes (CYP1A2, CYP2C9, CYP2C19, CYP2D6, and CYP3A4) with use of a 5-in-1 probe substrate for CYP isozymes.
# (§2) Mixed human liver microsomes (HLM) were purchased from Corning Inc. (Steuben, N.Y., USA) or XenoTech, LLC. (Lenexa, Kans., USA) or other suppliers, and stored in a condition below −70° C. before use.
# (§3) Diluted working solutions of the sample for test in serial concentrations were added to an incubation system containing the human liver microsomes, probe substrate, and accessory factors of a cycling system, and a control containing no sample for test but a solvent was taken as a control for enzymatic activity (100%). Concentration of metabolites generated by the probe substrate in the sample was measured with a method of liquid chromatography-tandem mass spectrometry (LC-MS/MS). Nonlinear regression analysis of mean percentage activity vs concentration of the sample for test was carried out using SigmaPlot (V.11). An IC^50 value was calculated through a three-parameter or four-parameter inflection logarithmic equation.
# CYP3A4 = target: T3, CYP3A4 (Homo sapiens, UniProt P08684); experiment: Inhibition on human liver microsome CYP3A4; type: in vitro ADME; conditions: human liver microsomes; for IC50: 5-in-1 probe substrate
# T3 construct: tissue Corning Inc. or XenoTech, LLC. or other suppliers; host or cells: mixed human liver microsomes
# T3 sequence (P08684 whole entry): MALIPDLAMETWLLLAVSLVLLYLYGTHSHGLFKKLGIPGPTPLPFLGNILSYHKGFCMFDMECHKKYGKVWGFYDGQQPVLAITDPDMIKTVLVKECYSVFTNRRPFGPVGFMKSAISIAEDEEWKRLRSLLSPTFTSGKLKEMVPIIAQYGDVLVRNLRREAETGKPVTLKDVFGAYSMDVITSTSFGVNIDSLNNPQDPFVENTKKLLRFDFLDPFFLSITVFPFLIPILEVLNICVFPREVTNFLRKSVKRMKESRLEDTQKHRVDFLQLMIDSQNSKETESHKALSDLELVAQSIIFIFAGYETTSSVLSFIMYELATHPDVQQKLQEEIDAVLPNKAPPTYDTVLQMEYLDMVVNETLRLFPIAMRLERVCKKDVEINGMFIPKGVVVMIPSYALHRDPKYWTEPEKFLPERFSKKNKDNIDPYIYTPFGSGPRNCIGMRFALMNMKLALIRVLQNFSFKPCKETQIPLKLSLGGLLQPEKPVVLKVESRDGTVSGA
# Description: as §1, §2, §3
# mice colon cancer CT26 = experiment: Efficacy against mice colon cancer CT26 transplanted tumor; type: in vivo, BALB/c mice; conditions: for Inhibitory Rate for Tumor Weight / Tumor Weight / mean tumor weight compared with the control group: end of experiment; for tumor inhibitory effect compared at the same dose: same dose of 100 mg/kg
# Description: Research on Efficacy of Anti-Mice Colon Cancer Ct26
# In the present research, colon cancer CT26 models were employed to compare differences between compound 231 and compounds 360 and 117 in antitumor effects.
# Therefore, the dose of the two compounds, compound 360 and compound 117, in the present experiment was set as 100 mg/kg. In order to observe dose-efficacy relevance of 231, a dose of the compound 231 was set as 25, 50, 100, 200 mg/kg in the present experiment. All drugs were administered by gavage, twice a day.
# According to document reports, mice colon cancer CT26 is a commonly used tumor model for evaluating immunological drugs. […] Therefore, CT26-bearng BALB/c models were chosen in the present experiment for research on efficacy and tissue distribution.
# In a super-clean bench, each mouse was subcutaneously inoculated with 0.2 mL of the tumor cell suspension at shoulder, with an inoculation amount of 1×10^5 per mouse. When a tumor block grew to be 500-1000 mm^3, the tumor block was taken out, cut into pieces with scissors, and subcutaneously inoculated at shoulder at the mouse's back using a subcutaneous embedding implantation puncture needle (with a diameter of 1.2 mm).
# The day of tumor inoculation was defined as Day 0, and the inoculated animals were grouped randomly on the day of inoculation. One day after the inoculation (Day 1), the administration was started. The experiment had 7 groups in total, with 12 animals in each group. See details in Table 12 for information on animal grouping and administration.
# It was an experimental cycle when the tumor in the control group grew to have a volume of 3000 mm^3. The following indexes were observed during the experiment.
# (1) As for tumor growth curve, when the tumor was measurable, a maximum diameter (a) and a minimum diameter (b) of the tumor were measured once every other day, to calculate the tumor volume (a calculation formula is V=½×a×b^2), and anti-tumor effect of the tested drug was observed dynamically.
# (4) As for tumor inhibitory rate, when the experiment was ended, the mice were killed by cervical dislocation, the tumor blocks were taken out and weighed, to calculate the tumor inhibitory rate, where tumor inhibitory rate=(mean tumor weight of the control group-mean tumor weight of the treatment group)/mean tumor weight of the control group×100%), and the tumor blocks were photographed with a digital camera for recording.
structure (smiles),measurement,setting,value
CC(=O)NCCSc1nonc1/C(=N/O)Nc1ccc(F)c(Br)c1 [Compound 0227],IC50,[1],0.0031 µM
same,IC50,CYP2C9,15.9 µM
same,IC50,CYP3A4,39.2 µM
NC(=O)NCCSc1nonc1/C(=N/O)Nc1ccc(F)c(Br)c1 [Compound 0231],IC50,[1],0.00435 µM
same,tumor volume compared with the control group,mice colon cancer CT26; 25 mg/kg (low dose) gavage BID,remarkably less than that of the control group at Day 10 and Day 12
same,Mean Tumor Volume,"mice colon cancer CT26; 25 mg/kg gavage BID, D12",411.7 ± 275.4* mm^3
same,Mean Tumor Volume,"mice colon cancer CT26; 25 mg/kg gavage BID, D14",721.9 ± 575.3 mm^3
same,Mean Tumor Volume,"mice colon cancer CT26; 25 mg/kg gavage BID, D17",1471.2 ± 1269.4 mm^3
same,Mean Tumor Volume,"mice colon cancer CT26; 25 mg/kg gavage BID, Day8",69.5 ± 21.9 mm^3
same,Mean Tumor Volume,"mice colon cancer CT26; 25 mg/kg gavage BID, Day10",229.1 ± 76.7* mm^3
same,Inhibitory Rate for Tumor Weight,mice colon cancer CT26; 25 mg/kg gavage BID,25.9%
same,Tumor Weight,mice colon cancer CT26; 25 mg/kg gavage BID,1.49 ± 1.16 g
same,Mean Tumor Volume,"mice colon cancer CT26; 50 mg/kg gavage BID, D12",436.8 ± 204.9* mm^3
same,Mean Tumor Volume,"mice colon cancer CT26; 50 mg/kg gavage BID, D14",661.5 ± 255.6* mm^3
same,Mean Tumor Volume,"mice colon cancer CT26; 50 mg/kg gavage BID, D17",1242.2 ± 500.9* mm^3
same,Mean Tumor Volume,"mice colon cancer CT26; 50 mg/kg gavage BID, Day8",94.5 ± 52.5 mm^3
same,Mean Tumor Volume,"mice colon cancer CT26; 50 mg/kg gavage BID, Day10",234.6 ± 117.6* mm^3
same,Inhibitory Rate for Tumor Weight,mice colon cancer CT26; 50 mg/kg gavage BID,29.2%
same,Tumor Weight,mice colon cancer CT26; 50 mg/kg gavage BID,1.42 ± 0.56 g
same,Mean Tumor Volume,"mice colon cancer CT26; 100 mg/kg gavage BID, D12",372.4 ± 308.9* mm^3
same,Mean Tumor Volume,"mice colon cancer CT26; 100 mg/kg gavage BID, D14",598.6 ± 442.3* mm^3
same,Mean Tumor Volume,"mice colon cancer CT26; 100 mg/kg gavage BID, D17",1195.4 ± 779.8* mm^3
same,Mean Tumor Volume,"mice colon cancer CT26; 100 mg/kg gavage BID, Day8",97.9 ± 86.9 mm^3
same,Mean Tumor Volume,"mice colon cancer CT26; 100 mg/kg gavage BID, Day10",168.2 ± 145.5* mm^3
same,Inhibitory Rate for Tumor Weight,mice colon cancer CT26; 100 mg/kg gavage BID,34.0%
same,Tumor Weight,mice colon cancer CT26; 100 mg/kg gavage BID,1.32 ± 1.09 g
same,Mean Tumor Volume,"mice colon cancer CT26; 200 mg/kg gavage BID, D12",300.4 ± 231.8* mm^3
same,Mean Tumor Volume,"mice colon cancer CT26; 200 mg/kg gavage BID, D14",512.2 ± 351.8* mm^3
same,Mean Tumor Volume,"mice colon cancer CT26; 200 mg/kg gavage BID, D17",909.7 ± 544.6* mm^3
same,Mean Tumor Volume,"mice colon cancer CT26; 200 mg/kg gavage BID, Day8",74.2 ± 32.2 mm^3
same,Mean Tumor Volume,"mice colon cancer CT26; 200 mg/kg gavage BID, Day10",160.5 ± 114.9* mm^3
same,Inhibitory Rate for Tumor Weight,mice colon cancer CT26; 200 mg/kg gavage BID,56.8%
same,Tumor Weight,mice colon cancer CT26; 200 mg/kg gavage BID,0.87 ± 0.74 g
same,mean tumor weight compared with the control group,mice colon cancer CT26; 200 mg/kg gavage BID,remarkably less than that of the control group
same,mean tumor weight compared with the control group,"mice colon cancer CT26; 25, 50, 100 mg/kg gavage BID","less than that of the control group, but without statistical difference"
same,"tumor inhibitory effect, dose dependence","mice colon cancer CT26; 25, 50, 100, 200 mg/kg gavage BID",dose-dependent manner
same,tumor volume compared with the control group,"mice colon cancer CT26; dose equal to or greater than 50 mg/kg, Day 10 to end of test",always remarkably less than that of the control group
same,tumor inhibitory effect compared at the same dose,mice colon cancer CT26,equivalent tumor inhibitory effect
same,inhibiting effect on CYP2C9 in words,CYP2C9,relatively weak effect
same,IC50,CYP2C9,> 50 µM
same,inhibiting effect on CYP3A4 in words,CYP3A4,relatively weak effect
same,IC50,CYP3A4,> 50 µM
NS(=O)(=O)NCCSc1nonc1/C(=N/O)Nc1ccc(F)c(Br)c1 [Compound 0117],IC50,[1],0.00585 µM
same,mean tumor volume compared with the control group during the test,mice colon cancer CT26; 100 mg/kg gavage BID,"always less than that of the control group, but without statistical difference"
same,animals without tumor block when the test was ended,"mice colon cancer CT26; 100 mg/kg gavage BID, 12 animals",one animal on which no tumor block grew
same,Mean Tumor Volume,"mice colon cancer CT26; 100 mg/kg gavage BID, D12",517.3 ± 261.9 mm^3
same,Mean Tumor Volume,"mice colon cancer CT26; 100 mg/kg gavage BID, D14",760.9 ± 335.7 mm^3
same,Mean Tumor Volume,"mice colon cancer CT26; 100 mg/kg gavage BID, D17",1410.5 ± 734.0 mm^3
same,Mean Tumor Volume,"mice colon cancer CT26; 100 mg/kg gavage BID, Day8",130.1 ± 31.1 mm^3
same,Mean Tumor Volume,"mice colon cancer CT26; 100 mg/kg gavage BID, Day10",262.3 ± 131.2 mm^3
same,Inhibitory Rate for Tumor Weight,mice colon cancer CT26; 100 mg/kg gavage BID,14.4%
same,Tumor Weight,mice colon cancer CT26; 100 mg/kg gavage BID,1.71 ± 0.76 g
same,mean tumor weight compared with the control group,mice colon cancer CT26; 100 mg/kg gavage BID,"less than that of the control group, but without statistical difference"
NS(=O)(=O)NCCOc1nonc1/C(=N/O)Nc1ccc(F)c(Br)c1 [Compound 0015],IC50,[1],0.014 µM
"NS(=O)(=O)NCCNc1nonc1C(=NO)Nc1ccc(F)c(Br)c1 [Compound 360, INCB024360, reference compound]",mean tumor volume compared with the control group during the test,mice colon cancer CT26; 100 mg/kg gavage BID,"always less than that of the control group, but without statistical difference"
same,Mean Tumor Volume,"mice colon cancer CT26; 100 mg/kg gavage BID, D12",512.0 ± 240.2 mm^3
same,Mean Tumor Volume,"mice colon cancer CT26; 100 mg/kg gavage BID, D14",949.2 ± 773.3 mm^3
same,Mean Tumor Volume,"mice colon cancer CT26; 100 mg/kg gavage BID, D17",1531.0 ± 606.0 mm^3
same,Mean Tumor Volume,"mice colon cancer CT26; 100 mg/kg gavage BID, Day8",95.2 ± 36.6 mm^3
same,Mean Tumor Volume,"mice colon cancer CT26; 100 mg/kg gavage BID, Day10",303.5 ± 233.3 mm^3
same,Inhibitory Rate for Tumor Weight,mice colon cancer CT26; 100 mg/kg gavage BID,29.5%
same,Tumor Weight,mice colon cancer CT26; 100 mg/kg gavage BID,1.41 ± 0.81 g
same,mean tumor weight compared with the control group,mice colon cancer CT26; 100 mg/kg gavage BID,"less than that of the control group, but without statistical difference"
same,tumor inhibitory rate for CT26,"mice colon cancer CT26; preliminary experimental research, gavage 100 mg/kg bid",30-50%
same,tumor inhibitory effect compared at the same dose,mice colon cancer CT26,equivalent tumor inhibitory effect
